Experimental data published in patent publication US4026888A, “Certain derivatives of particular 3-thiolated cephalosporins” (priority 1976, dated 1977).
Converted amounts (≈) assume the structure as drawn. Like-named read-outs stand apart in the source and are kept apart here.

Experiments:
Str. pyogenes A9604 = assay: Antibiotic activity in nutrient broth (MIC); type: cell-based; conditions: 45% AAB + 5% serum + 50% broth, derivatives adjusted for BL-S640 content
Excerpt: (§1) Antibiotic Activity In Nutrient Broth
* 45% AAB+ 5% serum+ 50% broth listed above.
(§2) ** Dilution of overnight broth culture.
(§3) Antibiotic Spectrum Nutrient Broth
* 45% AAB + 5% serum + 50% broth
(§4) Antibiotic Spectrum in Nutrient Broth
*45% AAB + 5% serum + 50% broth listed above.

P. mirabilis A9900 [1] = assay: Oral PD50 in mice; type: in vivo; conditions: oral, mice treated at 1 and 3.5 hours post-challenge
P. mirabilis A9900 [2] = assay: IM PD50 in mice; type: in vivo; conditions: Proteus mirabilis
Excerpt: Comparative IM PD50 Values of
BL-S640 Derivatives in Mice

Ent. cloacae A9659 = assay: Antibiotic activity in nutrient broth (MIC); type: cell-based; conditions: derivatives adjusted for BL-S640 content
Excerpt: as §1, §2, §3, §4

S. aureus BX1633 A9606 = assay: Antibiotic activity in nutrient broth (MIC); type: cell-based; conditions: derivatives adjusted for BL-S640 content
Excerpt: as §1, §2, §3, §4

Pr. mirabilis A9900 = assay: Antibiotic activity in nutrient broth (MIC); type: cell-based; conditions: Proteus mirabilis, inoculum 10^-4, derivatives adjusted for BL-S640 content
Excerpt: as §1, §2, §3, §4

Ent. cloacae A9656 = assay: Antibiotic activity in nutrient broth (MIC); type: cell-based; conditions: Enterobacter cloacae, derivatives adjusted for BL-S640 content
Excerpt: as §1, §2, §3, §4

E. coli Juhl A15119 = assay: Antibiotic activity in nutrient broth (MIC); type: cell-based; conditions: derivatives adjusted for BL-S640 content
Excerpt: as §1, §2, §3, §4

Sal. enteritidis A9531 = assay: Antibiotic activity in nutrient broth (MIC); type: cell-based; conditions: inoculum 10^-4, derivatives adjusted for BL-S640 content
Excerpt: as §1, §2, §3, §4

K. pneumoniae A9977 = assay: Antibiotic activity in nutrient broth (MIC); type: cell-based; conditions: Klebsiella pneumoniae, inoculum 10^-4, derivatives adjusted for BL-S640 content, read-out: MIC
Excerpt: as §1, §2, §3, §4

K. pneumoniae A15130 = assay: Antibiotic activity in nutrient broth (MIC); type: cell-based; conditions: derivatives adjusted for BL-S640 content
Excerpt: as §1, §2, §3, §4

Ps. aeruginosa A9843A = assay: Antibiotic activity in nutrient broth (MIC); type: cell-based; conditions: Pseudomonas aeruginosa
Excerpt: as §1, §2, §3, §4

S. aureus Smith A9537 = assay: Antibiotic activity in nutrient broth (MIC); type: cell-based; conditions: + 50% serum, derivatives adjusted for BL-S640 content
Excerpt: as §1, §2, §3, §4

Ent. cloacae A9657 = assay: Antibiotic activity in nutrient broth (MIC); type: cell-based; conditions: derivatives adjusted for BL-S640 content
Excerpt: as §1, §2, §3, §4

E. coli A9675 = assay: Antibiotic activity in nutrient broth (MIC); type: cell-based; conditions: derivatives adjusted for BL-S640 content
Excerpt: as §1, §2, §3, §4

Ser. marcescens A20019 = assay: Antibiotic activity in nutrient broth (MIC); type: cell-based; conditions: Serratia marcescens, derivatives adjusted for BL-S640 content
Excerpt: as §1, §2, §3, §4

[3] = Mouse blood levels after oral administration; type: in vivo
Description: Mouse Blood Levels After Oral
Administration Of 100 mg./kg. Body Weight
The compounds were prepared in
Tween - carboxymethylcellulose
and 8 mice were used for each
Mouse Blood Levels After PO
Administration of 100 mg./kg. Body Weight
The compounds were prepared in Tween-CMC. BL-S640
The compounds were prepared in Tween-CMC. Values are the average of two

[4] = Urinary recovery after IM administration to rats; type: in vivo; conditions: rat, urine, 50 mg/kg, IM 50 mg./kg., read-out: Urinary Recovery, Percentage of Administered Dose Recovered
Description: Urinary Recovery After IM
Administration of 50 and 10 mg./kg. to Rats
The compounds were prepared in 0.01% phosphate buffer. BL-S640 was used as
Urinary Recovery after IM
Administration of 50 mg./kg. to Rats
The compounds were prepared in 0.01% phosphate buffer.

Structure (SMILES): N[C@@H](C(=O)N[C@@H]1C(=O)N2C(C(=O)O)=C(CSc3cnn[nH]3)CS[C@H]12)c1ccc(O)cc1 [BL-S640, 7-[D-α-amino-α-(p-hydroxyphenyl)acetamido]-3-(1,2,3-triazol-5-ylthiomethyl)-3-cephem-4-carboxylic acid, reference compound]
- MIC (Str. pyogenes A9604; Streptococcus pyogenes, A9604, inoculum 10^-3, read-out: MIC): 0.06 µg/mL
- MIC (Str. pyogenes A9604; inoculum 10^-3): 0.03 µg/mL
- ED50 (P. mirabilis A9900 [1]; Proteus mirabilis, A9900, po, 3.5 h, read-out: PD50): 7.2 mg/kg
- PD50 (P. mirabilis A9900 [1]): 9.6 mg./kg./treatment
- ED50 (P. mirabilis A9900 [2]): 1.6 mg/kg
- MIC (Ent. cloacae A9659; Enterobacter cloacae, A9659, inoculum 10^-4, read-out: MIC): 63 µg/mL (≈ 136 µM)
- MIC (Ent. cloacae A9659; inoculum 10^-4): 32 µg/mL (≈ 69.2 µM)
- MIC (S. aureus BX1633 A9606; Staphylococcus aureus, BX1633A9606, inoculum 10^-2, read-out: MIC): 4 µg/mL (≈ 8.65 µM)
- MIC (S. aureus BX1633 A9606; inoculum 10^-2): 2 µg/mL (≈ 4.32 µM)
- MIC (Pr. mirabilis A9900): 0.5 µg/mL (≈ 1.08 µM)
- MIC (Ent. cloacae A9656; A9656, inoculum 10^-4): > 125 µg/mL
- MIC (Ent. cloacae A9656; A9656, inoculum 10^-4, read-out: MIC): 63 µg/mL (≈ 136 µM)
- MIC (E. coli Juhl A15119; Escherichia coli, JUHLA15119, inoculum 10^-4, read-out: MIC): 1 µg/mL (≈ 2.16 µM)
- MIC (E. coli Juhl A15119; inoculum 10^-4): 0.5 µg/mL (≈ 1.08 µM)
- MIC (Sal. enteritidis A9531; Salmonella enterica, ENTERITIDIS, read-out: MIC): 0.25 µg/mL (≈ 0.541 µM)
- MIC (Sal. enteritidis A9531): 0.13 µg/mL (≈ 0.281 µM)
- MIC (K. pneumoniae A9977): 0.5 µg/mL (≈ 1.08 µM)
- MIC (K. pneumoniae A15130; Klebsiella pneumoniae, A15130, inoculum 10^-4, read-out: MIC): 2 µg/mL (≈ 4.32 µM)
- MIC (K. pneumoniae A15130; inoculum 10^-4): 1 µg/mL (≈ 2.16 µM)
- MIC (Ps. aeruginosa A9843A): > 125 µg/mL
- MIC (S. aureus Smith A9537; Staphylococcus aureus, SMITHA9537, inoculum 10^-4, read-out: MIC): 4 µg/mL
- MIC (S. aureus Smith A9537; inoculum 10^-4): 2 µg/mL
- MIC (Ent. cloacae A9657; Enterobacter cloacae, A9657, inoculum 10^-4, read-out: MIC): 1 µg/mL (≈ 2.16 µM)
- MIC (Ent. cloacae A9657; inoculum 10^-4): 0.5 µg/mL (≈ 1.08 µM)
- MIC (E. coli A9675; Escherichia coli, A9675, inoculum 10^-4, read-out: MIC): 4 µg/mL (≈ 8.65 µM)
- MIC (E. coli A9675; inoculum 10^-4): 2 µg/mL (≈ 4.32 µM)
- MIC (Ser. marcescens A20019; A20019, inoculum 10^-4): > 125 µg/mL
- MIC (Ser. marcescens A20019; A20019, inoculum 10^-4, read-out: MIC): 63 µg/mL (≈ 136 µM)
- Blood Levels ([3]; Example 3, PO 100 mg./kg., 1 hr, Tween-CMC, average of two experiments): 42400 ng/mL
- Blood Level ([3]; Table II, oral 100 mg./kg., 0.5 hr, Tween-carboxymethylcellulose, 8 mice, 100 mg/kg, 30 min): 57400 ng/mL
- Blood Level ([3]; Table II, oral 100 mg./kg., 1 hr, Tween-carboxymethylcellulose, 8 mice, 100 mg/kg, 60 min): 47000 ng/mL
- Blood Level ([3]; Table II, oral 100 mg./kg., 2 hr, Tween-carboxymethylcellulose, 8 mice, 100 mg/kg, 120 min): 29500 ng/mL
- Blood Level ([3]; Table II, oral 100 mg./kg., 3.5 hr, Tween-carboxymethylcellulose, 8 mice, 100 mg/kg, 210 min): 10900 ng/mL
- concentration at 0.5 h ([3]; mouse, blood, po, 100 mg/kg, Example 3, PO 100 mg./kg., 0.5 hr, Tween-CMC, average of two experiments, read-out: Blood Levels): 48700 ng/mL
- concentration at 2 h ([3]; mouse, blood, po, 100 mg/kg, Example 3, PO 100 mg./kg., 2 hr, Tween-CMC, average of two experiments, read-out: Blood Levels): 24000 ng/mL
- concentration at 3.5 h ([3]; mouse, blood, po, 100 mg/kg, Example 3, PO 100 mg./kg., 3.5 hr, Tween-CMC, average of two experiments, read-out: Blood Levels): 10100 ng/mL
- concentration at 0.5 h ([3]; mouse, blood, po, 100 mg/kg, Table II, oral 100 mg./kg., 0.5 hr, Tween-carboxymethylcellulose, 8 mice, read-out: Blood Level): 50500 ng/mL
- concentration at 1 h ([3]; mouse, blood, po, 100 mg/kg, Table II, oral 100 mg./kg., 1 hr, Tween-carboxymethylcellulose, 8 mice, read-out: Blood Level): 39000 ng/mL
- concentration at 2 h ([3]; mouse, blood, po, 100 mg/kg, Table II, oral 100 mg./kg., 2 hr, Tween-carboxymethylcellulose, 8 mice, read-out: Blood Level): 24500 ng/mL
- concentration at 3.5 h ([3]; mouse, blood, po, 100 mg/kg, Table II, oral 100 mg./kg., 3.5 hr, Tween-carboxymethylcellulose, 8 mice, read-out: Blood Level): 9600 ng/mL
- dose excreted at 6 h ([4]; 0-6 hr): 44.2%
- dose excreted at 24 h ([4]; 0-24 hr): 47.5%
- dose excreted at 24 h ([4]; 6-24 hr): 3.3%
